According to patent publication US12673041B2, “4-aminobut-2-enamide derivatives and salt thereof” (TAIHO PHARMACEUTICAL CO., LTD., priority 2019, dated 2026):
pIC50: −log10 of the molar value.

Experiments:
[1] = molecular target: T1, GMPPNP-bound KRAS G12C protein and cRAF RAS-binding domain (cRAF-RBD) (Homo sapiens, UniProt P01116, G12C); assay: Inhibitory activity on interaction between KRAS G12C and cRAF (Alpha technology); format: biochemical; conditions: GMPPNP-bound KRAS G12C incubated with compound at 25° C. for 1 hour, then cRAF-RBD, Alpha signal; read-out: IC50
T1 construct: made in house; host or cells: E. coli
Method: Interaction between recombinant K-Ras4B G12C mutant protein (amino acids 1-169, SEQ ID NO:2) and cRAF RAS-binding domain (cRAF-RBD, amino acids 50-132, Jena Biosciences GmbH) was measured using Alpha technology (PerkinElmer Inc.).
Recombinant KRAS G12C protein with an N-terminal His-tag was expressed in E. coli and purified by affinity chromatography. To prepare GTP-bound form and GDP-bound form of KRAS G12C protein, 50 μM KRAS G12C protein was incubated with 1 mM GMPPNP (Guanosine-5′-[(β,γ)-imido]triphosphate, Tetralithium salt) (Jena Bioscience GmbH) and 1 mM GDP, respectively, in a loading buffer (20 mM Tris-HCl (pH 7.5), 50 mM NaCl, 1 mM DTT and 2.5 mM EDTA) for 1 hour on ice. After the incubation, MgCl2 was added to a final concentration of 10 mM, followed by incubation at room temperature for 30 minutes. The mixture was allowed to pass through a NAP-5 column to remove free nucleotides and purified, and the resultant nucleotide-bound KRAS G12C protein was used for compound evaluation.
For the measurement of the inhibitory activity of compounds on interaction between KRAS G12C and cRAF-RBD, GMPPNP-bound KRAS G12C protein was incubated with various concentrations of compound in a reaction buffer (20 mM Tris-HCl (pH 7.5), 100 mM NaCl, 1 mM MgCl2, 1 mM TCEP, 0.1% Tween 20) at 25° C. for 1 hour. After the incubation, recombinant cRAF-RBD and Alpha detection reagents were added and incubated at room temperature for 1.5 hours for binding. Interaction 5 of KRAS G12C and cRAF-RBD was monitored by measuring Alpha signal. Inhibition % was calculated using the signal from the reaction without test compound (DMSO control) as 0% inhibition and the signal from the reaction using GDP-bound KRAS G12C in place of GMPPNP-bound KRAS G12C as 100% inhibition. IC50 values were calculated from dose titration curve using curve fitting by XLfit software (IDBS).

[2] = molecular target: Gppcp-bound recombinant K-Ras4B G12C mutant protein (amino acids 1-169, C51S/C80L/C118S) (Homo sapiens, UniProt P01116, C118S/C51S/C80L/G12C); assay: KRASG12C binding assay (LC-MS compound binding rate); conditions: test compound final concentration 0.5 μM, 25° C., 1 hour
Method: As test compounds for the KRASG12C binding assay, the compounds obtained in the “Preparation of Compounds” section were used. Sample solutions each containing a test compound were prepared in the form of a 10 mM DMSO solution.
Gppcp-bound recombinant K-Ras4B G12C mutant protein (amino acids 1-169, C51S/C80L/C118S, SEQ ID NO:1) was diluted with a buffer (1×TBS, 0.1 mM TCEP, 0.25 mM MgCl2, 50 μM Gppcp) to prepare a 50 nM protein solution. K-Ras4B is the major splicing variant of K-Ras. Amino acid sequence of residues 1 to 150 including the compounds' binding region of K-Ras4B is exactly same as that of K-Ras4A, the other splicing variant (Oncotarget. 2016 Jul. 19; 7(29): 46717-46733). A sample solution containing 10 mM test compound was diluted ten-fold with DMSO to make a 1 mM sample solution, and then diluted twenty-fold with DMSO to make a 50 μM sample solution. 1 μL of a 50 μM sample solution was added to 100 μL of a 50 nM protein solution to adjust the final concentration of a test compound to be 0.5 μM in the mixture. The mixtures were stored in an incubator at 25° C. for 1 hour, and 10 μL of a 1×TBS solution containing 2% formic acid was added to stop the reaction, followed by LC-MS measurement. LC-MS measurement was performed using Xevo G2-S Q-Tof manufactured by Waters, and reverse-phase chromatography was performed with a desalting column. A mass spectrum of positive ions was obtained by electrospray. For a mass spectrum, a spectrum of polyvalent ions was collectively converted to a molecular weight by using OpenLynx software by the MaxEnt technique, and a compound binding rate was calculated from the ratio of the signal intensity of a peak that corresponds to the molecular weight of the protein to the signal intensity of a peak that corresponds to the molecular weight of the protein conjugated with the compound.
The binding assay of the test compounds was conducted at a final concentration of 0.5 μM. A binding rate of 80% or more is rated “A”, a binding rate of 60% or more and less than 80% is rated “B”, a binding rate of 40% or more and less than 60% is rated “C”, a binding rate of 20% or more and less than 40% is rated “D”, and a binding rate of less than 20% is rated “E”. N.D.=not determined. Binding rate % is the ratio of KRAS signal intensity at the molecular weight of one molecule adduct to the sum of all the KRAS signal intensity (unbound form and adducts) in mass spectrum.
Thus, binding rate 100% means that only the one molecule adduct was observed without any unbound KRAS.

Row | pIC50 [1] | Compound | binding rate [2]
1 | 4.70 | O=C(/C=C/CN[C@H]1CC[C@H](O)CC1)Nc1ccc(C(=O)Nc2cccc(Br)c2)cn1 [Comparative example 1, N-(3-bromophenyl)-6-((E)-4-(((1r,4r)-4-hydroxycyclohexyl)amino)but-2-enamido)nicotinamide, reference compound] | E (a binding rate of less than 20% is rated “E”)
2 | 6.57 | CCN(CC)[C@H]1CC[C@H](NC/C=C/C(=O)Nc2ccc(C(=O)Nc3cccc(-c4c(Cl)ccc5c4cnn5C)c3)cc2C#N)CC1 [Example 12, N-(3-(5-chloro-1-methyl-1H-indazol-4-yl)phenyl)-3-cyano-4-((E)-4-(((1r,4r)-4-(diethylamino)cyclohexyl)amino)but-2-enamido)benzamide] | B (a binding rate of 60% or more and less than 80% is rated “B”)
3 | 6.39 | CCN(CC)[C@H]1CC[C@H](NC/C=C/C(=O)Nc2ccc(C(=O)Nc3cccc(-c4cc5nc(C)n(C)c5cc4Cl)c3)cc2F)CC1 [Example 13, N-(3-(6-chloro-1,2-dimethyl-1H-benzo[d]imidazol-5-yl)phenyl)-4-((E)-4-(((1r,4r)-4-(diethylamino)cyclohexyl)amino)but-2-enamido)-3-fluorobenzamide] | B (a binding rate of 60% or more and less than 80% is rated “B”)
4 | 6.08 | O=C(/C=C/CN[C@H]1CC[C@H](O)CC1)Nc1ccc(C(=O)Nc2cccc(-c3cc4nc[nH]c4cc3Cl)c2)cn1 [Example 14, N-(3-(6-chloro-1H-benzo[d]imidazol-5-yl)phenyl)-6-((E)-4-(((1r,4r)-4-hydroxycyclohexyl)amino)but-2-enamido)nicotinamide] | D (a binding rate of 20% or more and less than 40% is rated “D”)
5 | 6.70 | CCc1nc2c(Cl)c(-c3cccc(NC(=O)c4ccc(NC(=O)/C=C/CN[C@H]5CC[C@H](OC)CC5)c(C#N)c4)c3)c(C(F)(F)F)cc2n1C [Example 15, N-(3-(4-chloro-2-ethyl-1-methyl-6-(trifluoromethyl)-1H-benzo[d]imidazol-5-yl)phenyl)-3-cyano-4-((E)-4-(((1r,4r)-4-methoxycyclohexyl)amino)but-2-enamido)benzamide] | A (A binding rate of 80% or more is rated “A”)
6 | 6.15 | CO[C@H]1CC[C@H](NC/C=C/C(=O)Nc2ccc(C(=O)Nc3cccc(-c4cc5ncsc5cc4C)c3)cc2C#N)CC1 [Example 16, 3-cyano-4-((E)-4-(((1r,4r)-4-methoxycyclohexyl)amino)but-2-enamido)-N-(3-(6-methylbenzo[d]thiazol-5-yl)phenyl)benzamide] | C (a binding rate of 40% or more and less than 60% is rated “C”)
7 | 7.12 | CS(=O)(=O)N1CCC(NC/C=C/C(=O)Nc2ccc(C(=O)Nc3cccc(-c4cc5nccn5cc4Cl)c3)cc2C#N)CC1 [Example 17, (E)-N-(3-(6-chloroimidazo[1,2-a]pyridin-7-yl)phenyl)-3-cyano-4-(4-((1-(methylsulfonyl)piperidin-4-yl)amino)but-2-enamido)benzamide] | B (a binding rate of 60% or more and less than 80% is rated “B”)
8 | 7.47 | CCN(CC)[C@H]1CC[C@H](NC/C=C/C(=O)Nc2ccc(C(=O)Nc3cccc(-c4cc5ncn(C)c5cc4Cl)c3)cc2C#N)CC1 [Example 19, N-(3-(6-chloro-1-methyl-1H-benzo[d]imidazol-5-yl)phenyl)-3-cyano-4-((E)-4-(((1r,4r)-4-(diethylamino)cyclohexyl)amino)but-2-enamido)benzamide] | A (A binding rate of 80% or more is rated “A”)

More lines, now with the values behind:

Row | Compound | pIC50 [1] | binding rate [2]
9 | CO[C@H]1CC[C@H](NC/C=C/C(=O)Nc2ccc(C(=O)c3ccc4c(-c5c(Cl)cc6c(ncn6C)c5Cl)cccn34)cc2C#N)CC1 (single isomer, unassigned) [Example 63, (E)-N-(2-cyano-4-(8-(4,6-dichloro-1-methyl-1H-benzo[d]imidazol-5-yl)indolizine-3-carbonyl)phenyl)-4-(((1r,4r)-4-methoxycyclohexyl)amino)but-2-enamide] | 6.68 | A (A binding rate of 80% or more is rated “A”)
10 | C=CC(=O)Nc1ccc(C(=O)Nc2cccc(-c3cc4nc(COC)n(C)c4cc3C(F)(F)F)c2)cc1C#N [Comparative example 2, reference compound] | 4.82 | E (a binding rate of less than 20% is rated “E”)
11 | CCc1nc2cc(-c3cccc(NC(=O)c4ccc(NC(=O)/C=C/CN(C)C(C)(C)C)c(C#N)c4)c3)c(C(F)(F)F)cc2n1C [Example 2, (E)-4-(4-(tert-butyl(methyl)amino)but-2-enamido)-3-cyano-N-(3-(2-ethyl-1-methyl-6-(trifluoromethyl)-1H-benzo[d]imidazol-5-yl)phenyl)benzamide] | 6.06 | D (a binding rate of 20% or more and less than 40% is rated “D”)
12 | CCc1nc2cc(-c3cccc4c3CCN4C(=O)c3ccc(NC(=O)/C=C/CN[C@H]4CC[C@H](OC)CC4)c(C#N)c3)c(C(F)(F)F)cc2n1C [Example 10, (E)-N-(2-cyano-4-(4-(2-ethyl-1-methyl-6-(trifluoromethyl)-1H-benzo[d]imidazol-5-yl)indoline-1-carbonyl)phenyl)-4-(((1r,4r)-4-methoxycyclohexyl)amino)but-2-enamide] | 6.72 | A (A binding rate of 80% or more is rated “A”)
13 | COc1ccc(Cl)c(-c2cccc(NC(=O)c3ccc(NC(=O)/C=C/CNC4CCN(S(C)(=O)=O)CC4)c(C#N)c3)c2)c1OC [Example 11, (E)-N-(6′-chloro-2′,3′-dimethoxy-[1,1′-biphenyl]-3-yl)-3-cyano-4-(4-((1-(methylsulfonyl)piperidin-4-yl)amino)but-2-enamido)benzamide] | 6.20 | B (a binding rate of 60% or more and less than 80% is rated “B”)
14 | CO[C@H]1CC[C@H](NC/C=C/C(=O)Nc2ccc(C(=O)Nc3cc(F)c(F)c(-c4cc5ncn(C)c5cc4C)c3)cc2C#N)CC1 [Example 18, 3-cyano-N-(3-(1,6-dimethyl-1H-benzo[d]imidazol-5-yl)-4,5-difluorophenyl)-4-((E)-4-(((1r,4r)-4-methoxycyclohexyl)amino)but-2-enamido)benzamide] | 6.85 | A (A binding rate of 80% or more is rated “A”)
15 | Cc1nc2c(Cl)c(-c3cccc(NC(=O)c4ccc(NC(=O)/C=C/CNC5CCC(F)(F)CC5)c(C#N)c4)c3)c(Cl)cc2n1C [Example 20, (E)-3-cyano-N-(3-(4,6-dichloro-1,2-dimethyl-1H-benzo[d]imidazol-5-yl)phenyl)-4-(4-((4,4-difluorocyclohexyl)amino)but-2-enamido)benzamide] | 6.82 | A (A binding rate of 80% or more is rated “A”)
